Experimental data reported in patent US11130793B2, “GLP-1/GLP-2 dual agonists” (Zealand Pharma A/S, priority 2016, dated 2021).
Like-named read-outs stand apart in the source and are kept apart here. Square brackets hold non-standard residues; d marks the D form. Peptide text beside a SMILES is read from it. Aib = CC(C)(N)C(=O)O

What was measured:
human GLP-1 receptor = target: T1, human GLP-1 receptor (Homo sapiens, UniProt P43220); experiment: GLP-1 receptor potency assay (cAMP AlphaScreen, HEK293 cells stably expressing GLP-1R); type: cell-based; conditions: cAMP response, HEK293 cells expressing human GLP-1R; read-out: EC50 GLP-1
T1 construct: expressed in transfected cells
T1 sequence (P43220 24-463): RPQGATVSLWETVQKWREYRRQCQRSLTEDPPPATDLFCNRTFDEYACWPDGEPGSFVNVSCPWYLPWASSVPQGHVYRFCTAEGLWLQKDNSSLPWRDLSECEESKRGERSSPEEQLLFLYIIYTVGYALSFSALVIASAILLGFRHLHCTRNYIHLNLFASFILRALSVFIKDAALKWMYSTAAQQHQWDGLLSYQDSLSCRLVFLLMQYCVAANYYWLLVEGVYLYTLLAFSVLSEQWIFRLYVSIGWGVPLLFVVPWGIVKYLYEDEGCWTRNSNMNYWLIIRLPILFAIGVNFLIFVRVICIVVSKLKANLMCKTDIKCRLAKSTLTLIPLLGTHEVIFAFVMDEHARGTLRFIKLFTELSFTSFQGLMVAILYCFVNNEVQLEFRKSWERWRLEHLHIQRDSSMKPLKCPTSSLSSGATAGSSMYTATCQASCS
In short: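 A HEK293 clone stably expressing cloned human GLP-1R (G418-selected) was stimulated with compound. Intracellular cAMP was measured by AlphaScreen. Responses were normalized to positive and vehicle controls, and EC50 and maximal response were fitted by 4-parameter logistic regression.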

human GLP-2 receptor = target: T2, human GLP-2 receptor (Homo sapiens, UniProt O95838, D470N); experiment: GLP-2 receptor potency assay (cAMP AlphaScreen, HEK293 cells stably expressing GLP-2R); type: cell-based; conditions: cAMP response, HEK293 cells expressing human GLP-2R
T2 sequence (O95838 1-553 D470N): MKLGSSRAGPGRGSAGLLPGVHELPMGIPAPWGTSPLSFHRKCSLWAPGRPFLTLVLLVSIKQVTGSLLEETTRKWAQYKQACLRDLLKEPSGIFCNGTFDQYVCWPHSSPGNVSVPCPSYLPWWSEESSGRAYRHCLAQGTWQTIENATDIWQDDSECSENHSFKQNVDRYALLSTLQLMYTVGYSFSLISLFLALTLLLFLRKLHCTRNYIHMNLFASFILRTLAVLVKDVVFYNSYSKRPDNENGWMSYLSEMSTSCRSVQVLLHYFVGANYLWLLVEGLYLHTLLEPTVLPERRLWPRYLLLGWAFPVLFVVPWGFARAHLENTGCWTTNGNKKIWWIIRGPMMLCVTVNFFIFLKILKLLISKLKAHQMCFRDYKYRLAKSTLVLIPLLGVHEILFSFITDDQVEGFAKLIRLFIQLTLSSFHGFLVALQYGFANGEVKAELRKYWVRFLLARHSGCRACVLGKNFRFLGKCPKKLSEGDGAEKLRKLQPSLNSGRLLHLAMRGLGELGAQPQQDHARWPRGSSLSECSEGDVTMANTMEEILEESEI
In short: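 HEK293 cells stably expressing human GLP-2R (G418-selected clone); intracellular cAMP measured by AlphaScreen. Responses normalized to positive and vehicle controls; EC50 and maximal response from 4-parameter logistic fit.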

[1] = Solubility assessment by turbidity absorbance at 325 nm; type: physicochemical; conditions: 1 mg/ml peptide
Experimental: A stock solution of the test peptide (2 mg/ml; determined from the weighed amount of peptide) in demineralized water adjusted to pH 2.5 with HCl was prepared, and aliquots were diluted 1:1 in 100 mM acetate buffer (pH 4.0 and pH 5.0), 100 mM histidine buffer (pH 6.0 and pH 7.0) and 100 mM phosphate buffer (pH 6.0, pH 7.0 and pH7.5), respectively, and loaded in a standard flat-bottom, non-sterile 96-well UV Microplate. The absorbance of samples (single samples, n=1) at 280 and 325 nm was measured in an absorbance-based plate reader, which was preheated to ambient temperature (typically 25° C.).

[2] = tested on: Normal chow-fed C57BL/6J male mice; experiment: Effect on fasting glucose and intestinal weight in normal mice; type: in vivo; conditions: for Small intestinal wet weight: 250 nmol/kg s.c. once daily for 4 days, sacrificed 24 hours after final dosing; for Fasting blood glucose: day 0, fasted mice, after a single s.c. injection, 250 nmol/kg
Experimental: Normal chow-fed C57BL/6J male mice were used. The mice were kept in standard housing conditions, light-, temperature-, and humidity-controlled room (12:12 h light-dark cycle, with lights on at 06.00-18.00 h; 20-22° C.; 50-80% relative humidity). Each dosing group consisted of 6 animals. Mice were dosed once daily with 250 nmol/kg with the test compounds or vehicle for 4 days via subcutaneous administration.
On day 0 mice were fasted and blood glucose levels measured after a single s.c. injection with peptides. Animals were sacrificed 24 hours after final dosing on day 3, and small intestinal wet weights were measured.

| EC50 (human GLP-1 receptor) [nM] | EC50 (human GLP-2 receptor) [nM] | solubility ([1]; 100 mM acetate buffer pH 4.0, ambient temperature, read-out: Solubility, Acetate buffer pH 4) [µg/mL] | solubility ([1]; 100 mM acetate buffer pH 5.0, ambient temperature, read-out: Solubility, Acetate buffer pH 5) [µg/mL] | solubility ([1]; 100 mM histidine buffer pH 6.0, ambient temperature, read-out: Solubility, Histidine buffer pH 6) [µg/mL] | solubility ([1]; 100 mM histidine buffer pH 7.0, ambient temperature, read-out: Solubility, Histidine buffer pH 7) [µg/mL] | solubility ([1]; 100 mM phosphate buffer pH 6.0, ambient temperature, read-out: Solubility, Phosphate buffer pH 6) [µg/mL] | solubility ([1]; 100 mM phosphate buffer pH 7.0, ambient temperature, read-out: Solubility, Phosphate buffer pH 7) [µg/mL] | solubility ([1]; 100 mM phosphate buffer pH 7.5, ambient temperature, read-out: Solubility, Phosphate buffer pH 7.5) [µg/mL] | SMILES | Small intestinal wet weight [2] [g] | Fasting blood glucose [2] [mM] |
| --- | --- | --- | --- | --- | --- | --- | --- | --- | --- | --- | --- |
| 0.014 | 0.036 | ≥ 1000 | < 1000 | ≥ 1000 | ≥ 1000 | ≥ 1000 | ≥ 1000 | ≥ 1000 | CC[C@H](C)[C@H](NC(=O)[C@H](CC(C)C)NC(=O)[C@H](Cc1c[nH]c2ccccc12)NC(=O)[C@H](C)NC(=O)[C@@H](NC(=O)[C@H](Cc1ccccc1)NC(=O)[C@H](CC(=O)O)NC(=O)[C@H](CCCNC(=N)N)NC(=O)[C@H](C)NC(=O)[C@H](C)NC(=O)[C@H](CCC(N)=O)NC(=O)[C@H](CCC(=O)O)NC(=O)[C@H](CC(=O)O)NC(=O)[C@H](CC(C)C)NC(=O)[C@@H](NC(=O)[C@@H](NC(=O)[C@H](C)NC(=O)[C@H](CC(C)C)NC(=O)[C@H](CCC(=O)O)NC(=O)[C@H](CO)NC(=O)[C@@H](NC(=O)[C@H](Cc1ccccc1)NC(=O)[C@H](CO)NC(=O)CNC(=O)[C@H](CCC(=O)O)NC(=O)C(C)(C)NC(=O)[C@@H](N)Cc1c[nH]cn1)[C@@H](C)O)[C@@H](C)O)[C@@H](C)CC)[C@@H](C)CC)C(=O)N[C@@H](C)C(=O)N[C@@H](Cc1c[nH]cn1)C(=O)N[C@@H](CCCCN)C(=O)N[C@H](C(=O)N[C@H](C(=O)N[C@@H](CC(=O)O)C(=O)O)[C@@H](C)O)[C@@H](C)CC [Compound 1] (H-H[Aib]EGSFTSELATILDEQAARDFIAWLIAHKITD-OH) | 0.90 | 5.76 |
| 0.28 | 0.042 |  |  |  |  |  |  |  | CC[C@H](C)[C@H](NC(=O)[C@H](Cc1ccccc1)NC(=O)[C@H](CC(=O)O)NC(=O)[C@H](CCCNC(=N)N)NC(=O)[C@H](C)NC(=O)[C@H](C)NC(=O)[C@H](CCC(N)=O)NC(=O)[C@H](CCC(=O)O)NC(=O)[C@H](CC(=O)O)NC(=O)[C@H](CC(C)C)NC(=O)[C@@H](NC(=O)[C@@H](NC(=O)[C@H](C)NC(=O)[C@H](CC(C)C)NC(=O)[C@H](CCC(=O)O)NC(=O)[C@H](CO)NC(=O)[C@@H](NC(=O)[C@H](Cc1ccccc1)NC(=O)[C@H](CO)NC(=O)CNC(=O)[C@H](CCC(=O)O)NC(=O)C(C)(C)NC(=O)[C@@H](N)Cc1c[nH]cn1)[C@@H](C)O)[C@@H](C)O)[C@@H](C)CC)C(=O)N[C@@H](C)C(=O)N[C@@H](Cc1c[nH]c2ccccc12)C(=O)N[C@@H](CC(C)C)C(=O)N[C@@H](Cc1c[nH]cn1)C(=O)N[C@@H](C)C(=O)N[C@@H](Cc1c[nH]cn1)C(=O)N[C@@H](CCCCN)C(=O)N[C@H](C(=O)N[C@H](C(=O)N[C@@H](CC(=O)O)C(=O)O)[C@@H](C)O)[C@@H](C)CC [Compound 22] (H-H[Aib]EGSFTSELATILDEQAARDFIAWLHAHKITD-OH) | 0.82 | 6.18 |
| 0.013 | 0.19 |  |  |  |  |  |  |  | CC[C@H](C)[C@H](NC(=O)[C@H](Cc1ccccc1)NC(=O)[C@H](CC(=O)O)NC(=O)[C@H](CCCNC(=N)N)NC(=O)[C@H](C)NC(=O)[C@H](C)NC(=O)[C@H](CCC(N)=O)NC(=O)[C@H](CCC(=O)O)NC(=O)[C@H](CC(=O)O)NC(=O)[C@H](CC(C)C)NC(=O)[C@@H](NC(=O)[C@@H](NC(=O)[C@H](C)NC(=O)[C@H](CC(C)C)NC(=O)[C@H](CCC(=O)O)NC(=O)[C@H](CO)NC(=O)[C@@H](NC(=O)[C@H](Cc1ccccc1)NC(=O)[C@@H](NC(=O)CNC(=O)[C@H](CCC(=O)O)NC(=O)C(C)(C)NC(=O)[C@@H](N)Cc1c[nH]cn1)[C@@H](C)O)[C@@H](C)O)[C@@H](C)O)[C@@H](C)CC)C(=O)N[C@@H](C)C(=O)N[C@@H](Cc1c[nH]c2ccccc12)C(=O)N[C@@H](CC(C)C)C(=O)N[C@@H](CCC(N)=O)C(=O)N[C@@H](C)C(=O)N[C@@H](CCC(N)=O)C(=O)N[C@@H](CCCCN)C(=O)N[C@H](C(=O)N[C@H](C(=O)N[C@@H](CC(=O)O)C(=O)O)[C@@H](C)O)[C@@H](C)CC [Compound 26] (H-H[Aib]EGTFTSELATILDEQAARDFIAWLQAQKITD-OH) | 0.78 | 5.70 |
| 0.005 | 0.049 |  |  |  |  |  |  |  | CC[C@H](C)[C@H](NC(=O)[C@H](CC(C)C)NC(=O)[C@H](Cc1c[nH]c2ccccc12)NC(=O)[C@H](CO)NC(=O)[C@@H](NC(=O)[C@H](Cc1ccccc1)NC(=O)[C@H](CC(=O)O)NC(=O)[C@H](CCCNC(=N)N)NC(=O)[C@H](C)NC(=O)[C@H](C)NC(=O)[C@H](CCC(N)=O)NC(=O)[C@H](CCC(=O)O)NC(=O)[C@H](CC(=O)O)NC(=O)[C@H](CC(C)C)NC(=O)[C@@H](NC(=O)[C@@H](NC(=O)[C@H](C)NC(=O)[C@H](CC(C)C)NC(=O)[C@H](CCC(=O)O)NC(=O)[C@H](CO)NC(=O)[C@@H](NC(=O)[C@H](Cc1ccccc1)NC(=O)[C@@H](NC(=O)CNC(=O)[C@H](CCC(=O)O)NC(=O)C(C)(C)NC(=O)[C@@H](N)Cc1c[nH]cn1)[C@@H](C)O)[C@@H](C)O)[C@@H](C)O)[C@@H](C)CC)[C@@H](C)CC)C(=O)N[C@@H](C)C(=O)N[C@@H](Cc1c[nH]cn1)C(=O)N[C@@H](CCCCN)C(=O)N[C@H](C(=O)N[C@H](C(=O)N[C@@H](CC(=O)O)C(=O)O)[C@@H](C)O)[C@@H](C)CC [Compound 34] (H-H[Aib]EGTFTSELATILDEQAARDFISWLIAHKITD-OH) | 0.93 | 5.62 |
| 0.006 | 0.048 |  |  |  |  |  |  |  | CC[C@H](C)[C@H](NC(=O)[C@H](Cc1ccccc1)NC(=O)[C@H](CC(=O)O)NC(=O)[C@H](CCCNC(=N)N)NC(=O)[C@H](C)NC(=O)[C@H](C)NC(=O)[C@H](CCC(N)=O)NC(=O)[C@H](CCC(=O)O)NC(=O)[C@H](CC(=O)O)NC(=O)[C@H](CC(C)C)NC(=O)[C@@H](NC(=O)[C@@H](NC(=O)[C@H](C)NC(=O)[C@H](CC(C)C)NC(=O)[C@H](CCC(=O)O)NC(=O)[C@H](CO)NC(=O)[C@@H](NC(=O)[C@H](Cc1ccccc1)NC(=O)[C@@H](NC(=O)CNC(=O)[C@H](CCC(=O)O)NC(=O)C(C)(C)NC(=O)[C@@H](N)Cc1c[nH]cn1)[C@@H](C)O)[C@@H](C)O)[C@@H](C)O)[C@@H](C)CC)C(=O)N[C@@H](CC(N)=O)C(=O)N[C@@H](Cc1c[nH]c2ccccc12)C(=O)N[C@@H](CC(C)C)C(=O)N[C@@H](CCCCN)C(=O)N[C@@H](C)C(=O)N[C@@H](Cc1c[nH]cn1)C(=O)N[C@@H](CCCCN)C(=O)N[C@H](C(=O)N[C@H](C(=O)N[C@@H](CC(=O)O)C(=O)O)[C@@H](C)O)[C@@H](C)CC [Compound 35] (H-H[Aib]EGTFTSELATILDEQAARDFINWLKAHKITD-OH) | 0.81 | 5.95 |
